Measured values: ChEMBL document CHEMBL1153262, “Polyketide synthase thioesterases catalyze rapid hydrolysis of peptidyl thioesters” (Bioorg Med Chem Lett, 2009)

Assays:
[1] = Ratio of kcat/km of PKS TEs assessed as hydrolysis of epothilone
[2] = Activity at PKS TEs assessed as hydrolysis of epothilone
[3] = Ratio of kcat/km of PKS TEs assessed as hydrolysis of 6-deoxyerythronolide-B
[4] = Ratio of kcat/km of PKS TEs assessed as hydrolysis of pimaricin
[5] = Activity at PKS TEs assessed as hydrolysis of pimaricin

Row | kcat/Km [1] [M⁻¹ s⁻¹] | Km [2] [µM] | kcat [2] [s⁻¹] | kcat/Km [3] [M⁻¹ s⁻¹] | kcat/Km [4] [M⁻¹ s⁻¹] | Km [5] [µM] | kcat [5] [s⁻¹] | Structure (SMILES)
1 | 110 | 2900 | 0.32 | 0.39 |  |  |  | CC(=O)NCCSC(=O)CNC(=O)[C@H](C)NC(=O)OC(C)(C)C
2 | 145 |  |  | 7 | 1.29 |  |  | CC(=O)NCCSC(=O)CNC(=O)OC(C)(C)C
3 | 75.1 | 400 | 0.0303 | 1.47 | 23.3 | 800 | 0.02 | CC(=O)NCCSC(=O)CCCCCCNC(=O)OC(C)(C)C
4 | 24.2 |  |  | 7.75 | 1.14 |  |  | CC(=O)NCCSC(=O)CCNC(=O)c1ccccc1
5 | 38.8 | 1300 | 0.0517 | 0.8 |  |  |  | CC(=O)NCCSC(=O)CNC(=O)[C@@H](C)NC(=O)OC(C)(C)C
6 | 12.5 |  |  | 0.5 |  |  |  | CC(=O)NCCSC(=O)[C@@H](C)NC(=O)OC(C)(C)C
7 | 91.3 |  |  | 0.88 |  |  |  | CC(=O)NCCSC(=O)[C@H](C)NC(=O)OC(C)(C)C
